Data on two compounds can be found in patent US10400004B2, “Chemical synthesis method of phillyrin” (priority 2014, dated 2019).

Read-outs that look alike come from different tables or passages of the source. Marks after values point to notes of the source that are not given here.

The test system of data set [1] is Herpes simplex virus type I (HSV-1). Description: Impact of the drugs on virus-induced cytopathy (MTT, ER %). It is filed as cell-based.
The test system of data set [2] is respiratory syncytical virus (RSV). The description is as above. It is filed as cell-based.
Another data set has as its system Adenovirus (AdV). The description is as above. The class given is cell-based.
The test system of data set [3] is parainfluenza virus. The class given is in vivo, Kunming mice.
Another data set relates to Vero cells. Briefly: Drug cytotoxicity assay (MTT) on Vero cells. Conditions: 72 h, Probit regression. The class given is cell-based, African green monkey. The procedure:
Vero cells were subcultured for 1-2 days to form a film. […] The digestion was drained after needle-like holes occurred on the cell surface, then cells were dispersed with a few milliliters of medium, counted, then diluted to about 5×10^7 cells/L with DMEM containing 10% fetal bovine serum and transferred to a 96-pore culture plate until monolayer formed.
Cytotoxicity test: the drugs were diluted according to the concentrations shown in Table 1-1 for cytotoxicity assays.
Different concentrations of drugs diluted with the above maintenance medium (DMEM containing 2% fetal calf serum) were added dropwise to Vero monolayer cells with 0.2 ml per pore, and for each concentration, the drugs were added in sextuplicate in 6 pores respectively. In addition, 6 pores were set up as normal control (without drugs) while another 6 pores as blank control (medium only). Cells were grown in a 37° C. incubator under 5% CO2. CPE was visualized under the invert microscope and recorded daily. After 72 h, 20 μL MTT solution (5 mg·mL^−1) was added into each pore and incubated for 4 h. The culture medium in each pore was sucked and discarded, 100 μL DMSO was added to each pore. Then the culture was shaken for 5 min, measured OD value at 492 nm to calculate the cell survival ratio. The cell survival ratio was analyzed using a Probit regression model in SPSS 18.0 statistical software, and the maximal nontoxic concentration (TC0) and median toxic concentration (TC50) of drugs against Vero cells were calculated.

The test system of data set [4] is Influenza virus. Briefly: Impact of the drugs on virus-induced cytopathy (MTT, ER %). The class given is cell-based.
The next data set deals with enterovirus EV71. Described as above. It is filed as cell-based.
The subject of data set [5] is Parainfluenza virus. The description is as above. The class given is cell-based.
Data set [6] relates to influenza virus. It is filed as in vivo, Kunming mice.
Data set [7] relates to Coxsackie virus B3 (CVB3). Description: Impact of the drugs on virus-induced cytopathy (MTT, ER %). The class given is cell-based.
Data set [8] has as its system Coxsackie virus A16 (CoxA16). The description is as above. It is filed as cell-based.
Data set [9] can be described thus: Solubility of the synthesized white solid. It is filed as physicochemical. Conditions: white solid of Embodiment 1.
Where [10] appears, read: mice, parainfluenza virus 15LD50 nasally, 19.5 mg/kg/d intragastric, 5 days.
Where [11] appears, read: mice, influenza virus 15LD50 nasally, 19.5 mg/kg/d intragastric, 5 days.
Setting [12] is: summary of Table 1-3, Vero cells.
[13] abbreviates: mice, parainfluenza virus 15LD50 nasally, 3.25 mg/kg/d (low-dose) intragastric, 5 days.

As to `CCOC(=O)C1=C[C@@H](OC(CC)CC)[C@H](NC(C)=O)[C@@H](N)C1` [Oseltamivir phosphate, reference compound], the “antiviral efficiency (ER %)” value is on record as 66.56** % in [1]; 37.60% in data set [2]; 10.31% in the data set with Adenovirus (AdV); 81.76** % with Influenza virus [4] (Vero cells, 100 TCID50, 72 h, MTT, drug at maximal non-cytotoxic concentration or so (Table 1-2 last row: phillyrin 0.01, ribavirin 0.70, oseltamivir phosphate 0.30 g/L)); 51.86% in the data set on enterovirus EV71; 94.52** % in the data set on Parainfluenza virus [5]. Besides, the “antiviral efficiency (ER %)” value is 1.64% in data set [7] and 2.95% in data set [8]. Also, the “Lung index (X ± S)” value in the data set with parainfluenza virus [3] (setting [10]) stood at 1.256 ± 0.057; in the data set with influenza virus [6] (setting [11]), 1.191 ± 0.062. For the same compound, the “Lung index Inhibitory rate (%)” value is 21.56% with parainfluenza virus [3] (setting [10]) and 20.71% with influenza virus [6] (setting [11]). The “Maximal non-cytotoxic concentration (TC0)” value with Vero cells is listed as 0.28 g/L. The “Median toxic concentration (TC50)” value in the data set on Vero cells was determined as 832 µg/mL.
For phillyrin, the “antiviral efficiency (ER %)” value in data set [1] is recorded as 85.00** %; in [2] it was 80.40** %; in the data set on Adenovirus (AdV), 75.14** %; in the data set on Influenza virus [4], 75.38** %; in the data set on enterovirus EV71, 84.85** %; with Parainfluenza virus [5] it was 84.96** %. Besides, the entries for the “antiviral efficiency (ER %)” value in data set [7] and in [8] were 75.27** % and 75.08** %, respectively. Besides, the “inhibitory effect (in words)” value (in [1] (setting [12]); in data set [2] (setting [12]); in the data set with Adenovirus (AdV) (setting [12]); in the data set on Influenza virus [4] (setting [12]); with enterovirus EV71 (setting [12]); in the data set with Parainfluenza virus [5] (setting [12])) was “significant” in each case. Moreover, the “inhibitory effect (in words)” value in [7] (setting [12]) and in data set [8] (setting [12]) was “significant” in each case. Besides, the “solubility (in words)” value in data set [9] was “soluble in chloroform and methanol”. Further, the “Lung index (X ± S)” value was 1.360 ± 0.052 in the data set on parainfluenza virus [3] (setting [13]); 1.2297 ± 0.071 in the data set with parainfluenza virus [3] (mouse, in vivo, 13 mg/kg/day); 1.339 ± 0.045 with influenza virus [6] (mouse, in vivo, 3.25 mg/kg/day); 1.290 ± 0.041 in the data set with influenza virus [6] (mouse, in vivo, 13 mg/kg/day). Also, the “Lung index Inhibitory rate (%)” value with parainfluenza virus [3] (setting [13]) came to 15.03%; in the data set with parainfluenza virus [3] (mouse, in vivo, 13 mg/kg/day), 19.01%; in the data set on influenza virus [6] (mouse, in vivo, 3.25 mg/kg/day) it was 10.82%; with influenza virus [6] (mouse, in vivo, 13 mg/kg/day), 14.51%. The “effect on mice viral pneumonia (in words)” value is listed as “significant inhibitory effect” in the data set with parainfluenza virus [3] (parainfluenza virus, 3.25 to 13.0 mg/kg/d) and “significant inhibitory effect” in the data set with influenza virus [6] (influenza virus, 3.25 to 13.0 mg/kg/d). The “hemagglutination titers (in words)” value with parainfluenza virus [3] (parainfluenza virus, 3.25 to 13.0 mg/kg/d, compared to virus control group) is recorded as “greatly reduce”; with influenza virus [6] (influenza virus, 3.25 to 13.0 mg/kg/d, compared to virus control group), “greatly reduce”. Further, the “Maximal non-cytotoxic concentration (TC0)” value with Vero cells was found to be 0.006 g/L. Also, the “Median toxic concentration (TC50)” value in the data set with Vero cells stood at 550 µg/mL.
